In assay [1] the test system is NCI-H23. Description: NCI-60 screen, Non-Small Cell Lung Cancer panel. The format is cell-based. Particulars: Homo sapiens, NCI-H23, 48 h.
For assay [2], the system named is IGROV-1 (Ovarian cancer cells). Description: Short term (72 h) cytotoxicity assay. The format is cell-based. Particulars: Homo sapiens; IGROV-1, 72 h cytotoxicity.
Assay [3] has as its system HT29. Kind of assay: NCI-60 screen, Colon Cancer panel. The format is cell-based. The following applies: Homo sapiens, HT-29, 48 h.
For assay [4], the system named is MCF-7 (ER+ Breast Cancer). Kind of assay: Short term (72 h) cytotoxicity assay. The assay is classed as cell-based. The following applies: Homo sapiens, MCF7; MCF-7, 72 h cytotoxicity.
For assay [5], the system named is MDA-MB-468. Kind of assay: NCI-60 screen, Breast Cancer panel. The assay is classed as cell-based. The following applies: Homo sapiens, MDA-MB-468, 48 h. As for the experimental part: EC 330 was also tested using the NCI-60 Screening Methodology. The human tumor cell lines of the cancer screening panel are grown in RPMI 1640 medium containing 5% fetal bovine serum and 2 mM L-glutamine. For a typical screening experiment, cells are inoculated into 96 well microtiter plates in 100 μL at plating densities ranging from 5,000 to 40,000 cells/well depending on the doubling time of individual cell lines. After cell inoculation, the microtiter plates are incubated at 37° C., 5% CO2, 95% air and 100% relative humidity for 24 h prior to addition of experimental drugs. […]
Following drug addition, the plates are incubated for an additional 48 h at 37° C., 5% CO2, 95% air, and 100% relative humidity. […] Bound stain is subsequently solubilized with 10 mM trizma base, and the absorbance is read on an automated plate reader at a wavelength of 515 nm. […] Using the seven absorbance measurements [time zero, (Tz), control growth, (C), and test growth in the presence of drug at the five concentration levels (Ti)], the percentage growth is calculated at each of the drug concentrations levels. Percentage growth inhibition is calculated as: [(Ti−Tz)/(C−Tz)]×100 for concentrations for which Ti>/=Tz [(Ti−Tz)/Tz]×100 for concentrations for which Ti<Tz.
Three dose response parameters are calculated for each experimental agent. […]

For assay [6], the system named is U251 (Glioma). Kind of assay: Short term (72 h) cytotoxicity assay. The format is cell-based, human. Particulars: Homo sapiens, U-251; U251, 72 h cytotoxicity.
Assay [7] has as its system OVCAR-4. Kind of assay: NCI-60 screen, Ovarian Cancer panel. The format is cell-based. Particulars: Homo sapiens, OVCAR-4, 48 h.
Assay [8] concerns MDA-MB-231 (TNBC) Xenograft. Description: Tumor xenograft study, MDA-MB-231. The assay is classed as in vivo, mice. As for the experimental part: Uniform suspensions of human breast cancer MDA-MB-231 and human ovarian cancer IGROV1 cells (2×10^6) in 100 μL (0.02 carboxymethyl cellulose in phosphate buffered saline) were injected subcutaneously into the right and left flanks of 4- to 5-week-old female athymic nude mice (Charles River Laboratories). After 10 days, when the tumor […] reaches 100 mm^3, the mice were randomly allocated to 3 groups of each containing 6 animals. […] All drug was suspended in PBS followed by sonication (15 seconds with an intermittent interval of 5 seconds) for 1 minute. Tumors were allowed to reach palpability before drug intervention. Tumor size was measured every 3 days using digital Vernier Calipers and tumor volume was calculated using the ellipsoid formula [D×(d2)]/2, where D is the large diameter of the tumor and d represents the small diameter. On day 31, the mice were euthanized and tumors were harvested for protein and gene expression studies. […] FIG. 6B depicts a graph of tumor volume vs. time for the administration of EC300 at 2.5 mg/kg twice weekly in the MDA-MB-231 (TNBC) Xenograft. […] FIG. 7 depicts a graph of tumor volume vs. time for the administration of EC300 at 5 mg/kg 5 days per week in the IGROV1 (Ovarian) Xenograft. […] STAT3 phosphorylation is reduced in tumors that underwent treatment compared to control which is an indication of LIF downstream target.

For assay [9], the system named is HL-60(TB). Description: NCI-60 screen, Leukemia panel. The assay is classed as cell-based. Particulars: Homo sapiens, HL-60, 48 h.
Assay [10] has as its system HCC-2998. Kind of assay: NCI-60 screen, Colon Cancer panel. The format is cell-based. Particulars: Homo sapiens, HCC 2998, 48 h.
[11] abbreviates: read-out: GI50 (log10GI50) (converted).
The mark [12] stands for this setting: read-out: LC50 (log10LC50) (converted).

The structures appear in SMILES notation.

By GI50 is commonly meant the concentration that inhibits growth by half. Usually IC50 stands for the concentration that gives 50% inhibition. Low values mean greater potency, high ones weaker potency. `C#CC(F)(F)[C@]1(O)CCC2C3CCC4=CC(=O)CCC4=C3C(c3ccc(C4CC4)cc3)C[C@@]21C` (stereo partly drawn) [EC330, 17α-(1,1-difluoro-2-propyn-1-yl)-17β-hydroxy-11β-[4-p-(cyclopropyl)phenyl]estra-4,9-dien-3-one]: the GI50 is less than 10 nM in assay [1] (setting [11]); less than 10 nM in assay [3] (setting [11]); 204 nM in [5] (SRB, read-out: GI50 (log10GI50) (converted)); 3890 nM in [7] (setting [11]); less than 10 nM in assay [9] (setting [11]); 2950 nM in assay [10] (setting [11]). The CC50 is greater than 100000 nM in assay [1] (setting [12]); 692 nM in assay [3] (setting [12]); 50100 nM in assay [5] (setting [12]); greater than 100000 nM in assay [7] (setting [12]); less than 10 nM in [9] (setting [12]); greater than 100000 nM in assay [10] (setting [12]). The IC50 in assay [2] stood at 35 nM; in assay [4] it was 100 nM; in [6], 20 nM. Besides, in assay [8] (MDA-MB-231 xenograft tumors, FIG. 9), the “apoptosis in xenograft tumors” value is reported as “induced apoptosis dose dependently”. Besides, the tumor growth result in [8] (human triple negative breast cancer (TNBC) model) is “significantly reduced”. In [8] (treated vs. control, 'It is believed'), the “STAT3 phosphorylation in tumors” value is recorded as “reduced”.

The record behind these values is patent publication US10053485B2, “Cytotoxic agents that preferentially target leukemia inhibitory factor (LIF) for the treatment of malignancies and as new contraceptive agents” (Evestra, Inc., priority 2015, dated 2018).
